# Columns and labels:
# [1] = tested on: E. coli, NIHJ; assay: antimicrobial activity, MIC, standard process of Japan Society of Chemotherapy; format: cell-based; conditions: Escherichia coli, read-out: minimum growth inhibitory concentration (MIC)
# Procedure, shortened: (§1)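 Activity was determined by the standard procedure designated by the Japan Society of Chemotherapy. Values are the minimum growth inhibitory concentrations, given in μg/ml.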
# [2] = tested on: Pr. mirabilis, IF03849; assay: as above; format: cell-based; conditions: Proteus mirabilis, IF03849, Pr. mirabilis, read-out: minimum growth inhibitory concentration (MIC)
# Procedure, shortened: as §1
# [3] = tested on: Pr. vulgaris, 3167; assay: as above; format: cell-based; conditions: Proteus vulgaris, 3167, Pr. vulgaris, read-out: minimum growth inhibitory concentration (MIC)
# Procedure, shortened: as §1
# [4] = tested on: Ps. aeruginosa, 2063; assay: as above; format: cell-based; conditions: Pseudomonas aeruginosa, 2063, Ps. aeruginosa, read-out: minimum growth inhibitory concentration (MIC)
# Procedure, shortened: as §1
# [5] = tested on: Ps. aeruginosa, 2128; assay: as above; format: cell-based; conditions: Pseudomonas aeruginosa, 2128, Ps. aeruginosa, read-out: minimum growth inhibitory concentration (MIC)
# Procedure, shortened: as §1
# [6] = tested on: Ps. cepacia, IID1340; assay: as above; format: cell-based; conditions: Burkholderia cepacia, IID1340, Ps. cepacia, read-out: minimum growth inhibitory concentration (MIC)
# Procedure, shortened: as §1
# [7] = tested on: Ps. maltophilia, IID1275; assay: as above; format: cell-based; conditions: Stenotrophomonas maltophilia, IID1275, Ps. maltophilia, read-out: minimum growth inhibitory concentration (MIC)
# Procedure, shortened: as §1
# [8] = tested on: S. aureus, 209P; assay: as above; format: cell-based; conditions: Staphylococcus aureus, read-out: minimum growth inhibitory concentration (MIC)
# Procedure, shortened: as §1
# [9] = tested on: S. epidermidis, 56500; assay: as above; format: cell-based; conditions: Staphylococcus epidermidis, 56500, S. epidermidis, read-out: minimum growth inhibitory concentration (MIC)
# Procedure, shortened: as §1
# [10] = tested on: Ser. marcescens, 13001; assay: as above; format: cell-based; conditions: Serratia marcescens, 13001, Ser. marcescens, read-out: minimum growth inhibitory concentration (MIC)
# Procedure, shortened: as §1
# [11] = tested on: Sh. flexneri, 2a5503; assay: as above; format: cell-based; conditions: Shigella flexneri, read-out: minimum growth inhibitory concentration (MIC)
# Procedure, shortened: as §1
# [12] = tested on: Str. faecalis, ATCC 19433; assay: as above; format: cell-based; conditions: Enterococcus faecalis, ATCC19433, Str. faecalis, read-out: minimum growth inhibitory concentration (MIC)
# Procedure, shortened: as §1
# [13] = tested on: Str. pyogenes, G-36; assay: as above; format: cell-based; conditions: Streptococcus pyogenes, G36, Str. pyogenes, read-out: minimum growth inhibitory concentration (MIC)
# Procedure, shortened: as §1
# [14] = physchem; format: physicochemical; conditions: distilled water, room temperature (23° to 26° C.), 30 minutes agitation; read-out: Water solubility
# Procedure: (§2) The water-solubility and acute toxicity of the compounds of the present invention and the comparative compounds, were measured. The results obtained are shown hereunder. The water-solubility was measured by the following method.
# (i) Preparation of standard solution
# About 400 μg of the sample to be measured was accurately weighed (the weight was defined as W μg), and 0.1N NaOH solution was added thereto to bring the whole volume to 50 ml. The UV absorbance of a given amount of the solution was measured and the measured absorbance was defined as A1.
# (ii) Preparation of sample to be measured
# Distilled water was added to the sample to be measured (fine powder) in such amount that the sample was not completely dissolved but suspended, and then the suspension was vigorously agitated at room temperature (between 23° and 26° C.) for 30 minutes. Insoluble matter of the sample was removed therefrom by filtration, after which 3 ml sample of the filtrate (satulated aqueous solution of the sample) was taken. 3 ml of 0.2N NaOH solution was added to the filtrate sample to bring the total volume to 6 ml (i.e. the filtrate was diluted to 50% concentration.) To 1 ml of the resulting solution, 0.1N NaOH solution was further added to bring the total volume to 25 ml […]. In this connection, degree of dilution was occasionally changed, depending on degree of UV absorbance. The UV absorbance of the given amount of the solution was measured and the resulting absorbance was defined to as A2. Where the number of dilution is N, water-solubility (s) is obtained from the following equation: [formula]
# [15] = acute toxicity to mouse; format: in vivo; conditions: mouse, in vivo, iv; 200 mg/kg
# Procedure: as §2
# *200 mg/kg; i.v, (deaths/total number) As is obvious from the above
# [16] = in words, prior art discussion; cited from earlier work
# [17] = tested on: Gram-negative microorganisms; conditions: in words, prior art discussion; cited from earlier work
# [18] = tested on: Gram-positive microorganisms; conditions: in words, prior art discussion; cited from earlier work
smiles,measurement,setting,value
"CCNCC1CCN(c2c(F)cc3c(=O)c(C(=O)O)cn(CC)c3c2F)C1 (stereo not drawn) [Compound C, 1-Ethyl-7-[3-(ethylamino)methyl]-1-pyrolidinyl-6,8-difluoro-1,4-dihydro-4-oxo-3-quinolinecarboxylic acid, reference compound]",MIC,[1],≤ 0.05 mg/L
same,MIC,[2],0.39 mg/L
same,MIC,[3],0.2 mg/L
same,MIC,[4],0.78 mg/L
same,MIC,[5],0.39 mg/L
same,MIC,[6],1.56 mg/L
same,MIC,[7],0.78 mg/L
same,MIC,[8],0.1 mg/L
same,MIC,[9],0.39 mg/L
same,MIC,[10],0.2 mg/L
same,MIC,[11],≤ 0.05 mg/L
same,MIC,[12],0.39 mg/L
same,MIC,[13],0.78 mg/L
same,solubility at 0.5 h,[14],0.4 mg/mL
same,mortality,[15],50%
same,water-solubility (prior art compounds),[16],good water-solubility
same,antimicrobial activity against Gram-negative microorganisms (prior art compounds),[17],a little weak
same,antimicrobial activity against Gram-positive microorganisms (prior art compounds),[18],strong antimicrobial activity

# From patent US5416222A, “3-pyrrolidine methanamines wherein the alpha-carbon is substituted by 1 or 2 lower alkyl groups which are intermediates for pyridone-carboxylic acid derivatives” (Daiichi Seiyaku Co., Ltd., priority 1985, dated 1995)
